Laboratory results reported in US20180273531A1, “PYRIMIDINE COMPOUND AND MEDICAL USE THEREOF” (Japan Tobacco Inc., priority 2004, published 2018).

Key:
Type in all cases: cell-based
[1] = tested on: p15 protein; test: Evaluation of p15 induction activity (Western blotting); details: test substance 0.1 μM, 24 hrs, ACHN cells or HT-29 cells, compared to DMSO, n=2
Summary of the method: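 p15 protein quantified by densitometry of anti-p15 Western blots (10 μg protein per lane, mean of n=2). Samples came from HT-29 or ACHN cells given 0.1 μM compound for 24 h after 24 h plating, with DMSO as control.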

[2] = tested on: ACHN cells or HT-29 cells; test: Cell cycle analysis (flow cytometry, CycleTEST PLUS); details: test substance less than 10 μM, 24 hrs, compared to DMSO, n=2, read-out: CELL RATIO OF G0/G1 PHASE
Experimental: ACHN cells or HT-29 cells were cultured in a 6 well plate at 2.5×10^5 cells/1.8 mL/well for 24 hrs, then a test substance (less than 10 μM) dissolved in DMSO was added. After 24 hrs, cells were detached using trypsin-EDTA and the DNA content of single cell was analyzed by flow cytometry method using a CycleTEST PLUS (BECKTON DICKINSON) kit, and the proportion of the cells in the G0/G1 phase·S phase·G2/M phase was calculated. As a control, DMSO was used and the test was performed with n=2.

[3] = tested on: colorectal cancer cell line HT-29 cells; test: Growth inhibitory effect against cancer cell lines (3H-thymidine uptake), HT-29; details: Homo sapiens, HT-29, inhibition of 3H-thymidine uptake; test substance 18 hrs, then 3H-thymidine 6 hrs; triplicate
Summary of the method: (§1)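 Cells seeded at 1.0×10^4/well, grown 24 hrs, then exposed to compound in DMSO for 18 hrs before 6 hrs pulse with ^3H-thymidine (0.25 μCi/well). Harvested cell-incorporated radioactivity counted; IC50 is the concentration halving uptake versus DMSO control, triplicate.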

[4] = tested on: Renal cancer cell line ACHN cell; test: Growth inhibitory effect against cancer cell lines (3H-thymidine uptake), ACHN; details: Homo sapiens, ACHN
Summary of the method: as §1

[5] = tested on: p27 protein; test: p27 protein induction test (Western blotting); details: test substance (0.1 1M), 24 hrs, ACHN cells or HT-29 cells, compared to DMSO, n=2
Summary of the method: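 ACHN or HT-29 cells grown 24 h, then treated with test substance at […] (DMSO) for 24 h. Lysates normalised by protein content and probed by Western blot with anti-p27 antibody. Band density quantified by densitometer against DMSO control, n=2 averaged.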

| IC50 [3] | IC50 [4] | Structure (SMILES) | fold induction at 0.1 µM [1] | fold induction [2] | fold induction at up to 10 µM [2] | fold induction at 0.1 µM [5] |
| --- | --- | --- | --- | --- | --- | --- |
|  |  | COc1ccccc1-n1c(=O)n(C2CC2)c(=O)c2c(Nc3ccc(Cl)cc3)cc(=O)n(C)c21 [Example 1-104] | ≥ 1.5 | ≥ 1.2 |  |  |
|  |  | Cc1cccc(-n2c(=O)n(C)c(=O)c3c(Nc4ccc(Cl)cc4)cc(=O)n(C)c32)c1 [Example 1-86] | ≥ 1.5 | ≥ 1.2 |  |  |
|  |  | CCc1ccc(Nc2cc(=O)n(C)c3c2c(=O)n(-c2ccccc2)c(=O)n3-c2ccccc2)cc1 [Example 1-21] |  | ≥ 1.2 |  |  |
|  |  | Cc1ccccc1-n1c(=O)n(C)c(=O)c2c(Nc3ccc(Cl)cc3)cc(=O)n(C)c21 [Example 1-85] | ≥ 1.5 | ≥ 1.2 |  |  |
|  |  | Cn1c(=O)cc(Nc2ccc(Cl)cc2Cl)c2c(=O)n(-c3ccccc3)c(=O)n(-c3ccccc3)c21 [Example 1-26] | ≥ 1.5 | ≥ 1.2 |  |  |
| 100 to 1000 nM |  | Cc1cc(N(C)C)ccc1Nc1cc(=O)n(C)c2c1c(=O)n(-c1ccccc1)c(=O)n2-c1ccccc1 [Example 1-55] | ≥ 1.5 | ≥ 1.2 |  |  |
|  |  | CC(C)c1ccc(Nc2cc(=O)n(C)c3c2c(=O)n(-c2ccccc2)c(=O)n3-c2ccccc2)cc1 [Example 1-25] |  | ≥ 1.2 |  |  |
|  |  | CCn1c(=O)c2c(Nc3ccc(Cl)cc3)cc(=O)n(C)c2n(-c2ccc(Cl)cc2)c1=O [Example 1-94] | ≥ 1.5 |  | ≥ 1.2 |  |
|  |  | Cc1ccc(Nc2cc(=O)n(C)c3c2c(=O)n(-c2ccccc2)c(=O)n3-c2ccccc2)c(Cl)c1 [Example 1-34] | ≥ 1.5 | ≥ 1.2 |  |  |
| 100 to 1000 nM |  | Cn1c(=O)cc(Nc2ccc(Cl)cc2)c2c(=O)n(-c3ccccc3)c(=O)n(-c3ccccc3)c21 [Example 1-2] |  | ≥ 1.2 |  |  |
|  |  | CCCc1ccccc1Nc1cc(=O)n(C)c2c1c(=O)n(-c1ccccc1)c(=O)n2-c1ccccc1 [Example 1-50] |  | ≥ 1.2 |  |  |
|  |  | Cn1c(=O)cc(Nc2ccccc2Cl)c2c(=O)n(-c3ccccc3)c(=O)n(-c3ccccc3)c21 [Example 1-4] | ≥ 1.5 | ≥ 1.2 |  |  |
|  |  | Cn1c(=O)cc(Nc2ccc(Br)cc2)c2c(=O)n(CC(F)(F)F)c(=O)n(-c3ccccc3)c21 [Example 1-92] | ≥ 1.5 | ≥ 1.2 |  |  |
|  |  | Cn1c(=O)cc(Nc2ccc(C(F)(F)F)cc2)c2c(=O)n(-c3ccccc3)c(=O)n(-c3ccccc3)c21 [Example 1-33] | ≥ 1.5 | ≥ 1.2 |  |  |
|  |  | Cn1c(=O)cc(Nc2ccc(Cl)cc2)c2c(=O)n(-c3ccsc3)c(=O)n(-c3ccsc3)c21 [Example 1-77] | ≥ 1.5 | ≥ 1.2 |  |  |
|  |  | Cn1c(=O)cc(Nc2ccc(Cl)cc2)c2c(=O)n(C3CC3)c(=O)n(-c3ccccc3C(F)(F)F)c21 [Example 1-101] |  | ≥ 1.2 |  |  |
|  |  | Cc1ccccc1-n1c(=O)n(C2CC2)c(=O)c2c(Nc3ccc(Cl)cc3)cc(=O)n(C)c21 [Example 1-102] | ≥ 1.5 | ≥ 1.2 |  |  |
|  |  | CCCCc1ccccc1Nc1cc(=O)n(C)c2c1c(=O)n(-c1ccccc1)c(=O)n2-c1ccccc1 [Example 1-51] | ≥ 1.5 | ≥ 1.2 |  |  |
|  |  | COc1ccc(Nc2cc(=O)n(C)c3c2c(=O)n(-c2ccccc2)c(=O)n3-c2ccccc2)cc1 [Example 1-9] | ≥ 1.5 | ≥ 1.2 |  |  |
| 100 to 1000 nM |  | Cn1c(=O)cc(Nc2ccc(Cl)cc2)c2c(=O)n(C3CC3)c(=O)n(-c3ccccc3F)c21 [Example 1-100] | ≥ 1.5 | ≥ 1.2 |  |  |
|  |  | Cn1c(=O)cc(Nc2ccc(Cl)cc2)c2c(=O)n(C3CC3)c(=O)n(-c3ccccc3)c21 [Example 1-84] | ≥ 1.5 | ≥ 1.2 |  |  |
|  |  | CCc1ccccc1Nc1cc(=O)n(C)c2c1c(=O)n(-c1ccccc1)c(=O)n2-c1ccccc1 [Example 1-38] | ≥ 1.5 | ≥ 1.2 |  |  |

| IC50 [3] | IC50 [4] | Structure (SMILES) | fold induction at 0.1 µM [1] | fold induction [2] | fold induction at up to 10 µM [2] | fold induction at 0.1 µM [5] |
| --- | --- | --- | --- | --- | --- | --- |
|  |  | CCc1ccccc1-n1c(=O)n(C2CC2)c(=O)c2c(Nc3ccc(Cl)cc3)cc(=O)n(C)c21 [Example 1-103] | ≥ 1.5 | ≥ 1.2 |  |  |
|  |  | CNc1ccc(Nc2cc(=O)n(C)c3c2c(=O)n(-c2ccccc2)c(=O)n3-c2ccccc2)cc1 [Example 1-49] | ≥ 1.5 | ≥ 1.2 |  |  |
| < 10 nM | 10 to 100 nM | CCc1ccc(Nc2c3c(=O)n(C4CC4)c(=O)n(-c4cccc(NC(C)=O)c4)c3c(C)c(=O)n2C)c(F)c1 [Example 4-9] | ≥ 1.5 |  |  | ≥ 1.5 |
| 10 to 100 nM | 100 to 1000 nM | Cc1c(=O)n(C)c(Nc2ccc(I)cc2F)c2c(=O)n(C3CC3)c(=O)n(-c3cccc(NC(=O)c4cn[nH]c4)c3)c12 [Example 4-89] | ≥ 1.5 |  |  | ≥ 1.5 |
| < 10 nM | 100 to 1000 nM | COCC(=O)Nc1cccc(-n2c(=O)n(C3CC3)c(=O)c3c(Nc4ccc(Br)cc4F)cc(=O)n(C)c32)c1 [Example 1-266] | ≥ 1.5 |  |  | ≥ 1.5 |
| < 10 nM | 10 to 100 nM | C#Cc1ccc(Nc2c3c(=O)n(C4CC4)c(=O)n(-c4cccc(NS(=O)(=O)CC)c4)c3c(C)c(=O)n2C)c(F)c1 [Example 4-6] | ≥ 1.5 |  |  | ≥ 1.5 |
| < 10 nM | 10 to 100 nM | C#Cc1ccc(Nc2cc(=O)n(C)c3c2c(=O)n(C2CC2)c(=O)n3-c2cccc(NS(C)(=O)=O)c2)c(C)c1 [Example 1-336] | ≥ 1.5 |  |  | ≥ 1.5 |
| < 10 nM | 100 to 1000 nM | Cn1c(=O)cc(Nc2ccc(Br)cc2F)c2c(=O)n(C3CC3)c(=O)n(-c3cccc(S(=O)(=O)N4CCCC4)c3)c21 [Example 1-318] | ≥ 1.5 |  |  | ≥ 1.5 |
| < 10 nM | 10 to 100 nM | Cc1c(=O)n(C)c(Nc2ccc(I)cc2F)c2c(=O)n(C3CC3)c(=O)n(-c3ccc(C(=O)N(C)C)cc3)c12 [Example 4-93] | ≥ 1.5 |  |  | ≥ 1.5 |
|  |  | CCn1c(=O)c2c(Nc3ccc(Cl)cc3)cc(=O)n(C)c2n(-c2ccccc2)c1=O [Example 1-78] | ≥ 1.5 | ≥ 1.2 |  |  |
| < 10 nM | 10 to 100 nM | CSc1ccc(Nc2cc(=O)n(C)c3c2c(=O)n(C2CC2)c(=O)n3-c2cccc(NC(C)=O)c2)c(F)c1 [Example 1-341] | ≥ 1.5 |  |  | ≥ 1.5 |
| < 10 nM | < 10 nM | Cc1c(=O)n(C)c(Nc2ccc(I)cc2F)c2c(=O)n(C3CC3)c(=O)n(-c3cccc(NS(C)(=O)=O)c3)c12 [Example 3-7, N-{3-[3-cyclopropyl-5-(2-fluoro-4-iodophenylamino)-6,8-dimethyl-2,4,7-trioxo-3,4,6,7-tetrahydro-2H-pyrido[4,3-d]pyrimidin-1-yl]phenyl}methanesulfonamide] | ≥ 1.5 |  |  | ≥ 1.5 |
| < 10 nM | 10 to 100 nM | Cc1c(=O)n(C)c(Nc2ccc(I)cc2F)c2c(=O)n(C3CC3)c(=O)n(-c3cccc(N4C(=O)CNC4=O)c3)c12 [Example 4-108] | ≥ 1.5 |  |  | ≥ 1.5 |
| 10 to 100 nM | 100 to 1000 nM | CCc1ccc(Nc2c3c(=O)n(CC)c(=O)n(-c4cccc(NC(C)=O)c4)c3c(C)c(=O)n2C)c(F)c1 [Example 4-45] | ≥ 1.5 |  |  | ≥ 1.5 |
|  |  | CCCc1c(Nc2ccc(Cl)cc2)c2c(=O)n(-c3ccccc3)c(=O)n(-c3ccccc3)c2n(C)c1=O [Example 1-91] |  | ≥ 1.2 |  |  |
|  |  | Cc1c(Nc2ccc(Cl)cc2)c2c(=O)n(-c3ccccc3)c(=O)n(-c3ccccc3)c2n(C)c1=O [Example 1-43] | ≥ 1.5 | ≥ 1.2 |  |  |
|  |  | Cc1ccc(Nc2cc(=O)n(C)c3c2c(=O)n(-c2ccccc2)c(=O)n3-c2ccccc2)cc1 [Example 1-6] | ≥ 1.5 | ≥ 1.2 |  |  |
| < 10 nM | 10 to 100 nM | CCCS(=O)(=O)Nc1cccc(-n2c(=O)n(C3CC3)c(=O)c3c(Nc4ccc(Br)cc4F)cc(=O)n(C)c32)c1 [Example 1-271] | ≥ 1.5 |  |  | ≥ 1.5 |
| < 10 nM | 10 to 100 nM | Cn1c(=O)cc(Nc2ccc(I)cc2)c2c(=O)n(C3CC3)c(=O)n(-c3ccccc3)c21 [Example 1-221] | ≥ 1.5 |  |  | ≥ 1.5 |
|  |  | Cn1c(=O)cc(Nc2ccc(Cl)cc2)c2c(=O)n(CC(F)(F)F)c(=O)n(-c3ccccc3)c21 [Example 1-90] |  | ≥ 1.2 |  |  |
|  |  | CN(C)c1ccc(Nc2cc(=O)n(C)c3c2c(=O)n(CC(F)(F)F)c(=O)n3-c2ccccc2)cc1 [Example 1-93] | ≥ 1.5 | ≥ 1.2 |  |  |
